{"source": "patent US20240277698A1", "about": "“METHODS OF USING ALDOSTERONE SYNTHASE INHIBITORS” (CINCOR PHARMA, INC., priority 2021, published 2024)", "key": {"[1]": {"experiment": "Metformin drug-drug interaction study: safety (TEAEs)", "settings": "for Any TEAEs leading to death, number of events / Any TEAEs leading to death, subjects: Treatment A = 1000 mg metformin alone (N = 26), Treatment B = 1000 mg metformin + 10 mg Compound 1 (N = 27)", "procedure": "Safety was assessed throughout the study based on adverse events (AEs), physical examinations, weight measurements, electrocardiograms (ECGs), vital signs assessments (seated and orthostatic), and clinical laboratory evaluations.\nThe following safety assessments were performed: • AEs and SAEs; • Clinical laboratory test assessments; • Vital signs including heart rate, blood pressure (BP) (including orthostatic BP when indicated), respiration rate, and temperature; • 12-lead ECGs; • Physical examinations; and • Height, weight, and BMI.\nSafety analyses were performed throughout the study based on the Safety Population. Safety was evaluated through assessments of AEs, physical examinations, ECGs, weight measurements, vital signs assessments (seated and orthostatic), and clinical laboratory evaluations.\nA TEAE was defined as an AE that emerged, having been absent prior to the study, or an AE that worsened in severity after the first dose of any drug in this study. TEAEs were summarized by MedDRA SOC and PT for each treatment and overall. The number and percentage of subjects experiencing TEAEs and the number of TEAEs were tabulated. Subjects reporting more than 1 AE for a given MedDRA PT were counted only once for that term using the most severe incident. Subjects reporting more than 1 type of event within a SOC were counted only once for that SOC. The Safety Population was used for all the safety analyses."}, "[2]": {"experiment": "Metformin drug-drug interaction study: urine pharmacokinetics of metformin", "type": "in vivo, human"}, "aldosterone synthase": {"biological_target": "aldosterone synthase (Homo sapiens, UniProt P19099)", "sequence (P19099 25-503, species assumed)": "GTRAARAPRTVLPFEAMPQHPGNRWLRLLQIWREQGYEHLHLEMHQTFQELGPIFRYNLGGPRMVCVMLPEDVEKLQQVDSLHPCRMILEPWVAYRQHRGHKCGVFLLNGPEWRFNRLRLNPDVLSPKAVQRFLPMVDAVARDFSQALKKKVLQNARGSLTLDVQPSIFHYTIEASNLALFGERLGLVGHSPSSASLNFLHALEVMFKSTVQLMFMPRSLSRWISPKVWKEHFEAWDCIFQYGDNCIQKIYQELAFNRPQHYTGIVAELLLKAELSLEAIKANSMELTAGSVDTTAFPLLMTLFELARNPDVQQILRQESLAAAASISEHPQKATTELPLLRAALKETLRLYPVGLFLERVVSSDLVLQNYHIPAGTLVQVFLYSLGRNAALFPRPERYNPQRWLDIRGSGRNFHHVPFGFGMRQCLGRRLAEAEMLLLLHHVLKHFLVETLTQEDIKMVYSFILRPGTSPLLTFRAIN", "settings": "cited from earlier work"}, "[3]": {"settings": "Treatment B: single 1000 mg metformin + 10 mg Compound 1"}, "clinical": {"experiment": "clinical", "settings": "human, in vivo, 1000 mg; for AUC(0-inf): Metformin plasma AUC0-inf; for AUC(0-t): Metformin plasma AUC0-t"}, "[4]": {"settings": "Treatment B: 10 mg Compound 1 with single 1000 mg metformin"}, "[5]": {"settings": "Treatment A: single 1000 mg metformin alone"}, "[6]": {"settings": "Treatment B: single 1000 mg metformin + 10 mg Compound 1"}}, "note": "Read-outs that look alike come from different tables or passages of the source."}
{"smiles": "CCC(=O)NC1CCCc2c(-c3ccc4c(c3)CCC(=O)N4C)cncc21", "note": "(stereo not drawn) [Compound 1, N-(4-(1-methyl-2-oxo-1,2,3,4-tetrahydroquinolin-6-yl)-5,6,7,8-tetrahydroisoquinolin-8-yl)propionamide]", "values": [{"measurement": "Any TEAEs leading to death, number of events", "setting": "[1]", "result": 0, "unit": "e"}, {"measurement": "Any TEAEs leading to death, subjects", "setting": "[1]", "result": "0 (0.0) n (%)"}, {"measurement": "effect on metformin renal clearance", "setting": "[2]; 10 mg Compound 1 2 hours prior to metformin dosing", "result": "did not result in a reduction"}, {"measurement": "Compound 1 plasma AUC%extrap, Mean (SD)", "setting": "[4]", "result": "9.9 (5.2) %"}, {"measurement": "Compound 1 plasma λz, Mean (SD)", "setting": "[4]", "result": "0.033 (0.008) 1/h"}, {"measurement": "Tmax", "setting": "human, plasma", "result": 1.3, "unit": "h"}, {"measurement": "AUC(0-t)", "setting": "human, plasma, Compound 1 plasma AUC0-24, Mean (SD), Treatment B: 10 mg Compound 1 with single 1000 mg metformin", "result": 1660, "unit": "ng·h/mL"}, {"measurement": "AUC(0-t)", "setting": "human, plasma, Compound 1 plasma AUC0-72, Mean (SD), Treatment B: 10 mg Compound 1 with single 1000 mg metformin", "result": 2870, "unit": "ng·h/mL"}]}
{"smiles": "N#Cc1ccc([C@H]2CCc3cncn32)c(F)c1", "note": "[LCI1699]", "values": [{"measurement": "specificity for aldosterone synthase", "setting": "aldosterone synthase; clinical trials by Novartis, discontinued", "result": "lack of specificity for aldosterone synthase"}, {"measurement": "ACTH associated with aldosterone reductions", "setting": "aldosterone synthase; previously observed", "result": "corresponding increase in ACTH"}, {"measurement": "increase in predose 11-deoxycorticosterone levels", "setting": "aldosterone synthase; previously observed", "result": "up to 10 fold"}]}
{"smiles": "CN(C)C(=N)N=C(N)N", "note": "[metformin]", "values": [{"measurement": "Any TEAEs leading to death, number of events", "setting": "[1]", "result": 0, "unit": "e"}, {"measurement": "Any TEAEs leading to death, subjects", "setting": "[1]", "result": "0 (0.0) n (%)"}, {"measurement": "subjects experiencing diarrhoea", "setting": "[1]; human, in vivo", "result": "3 (11.5%)"}, {"measurement": "subjects experiencing nausea", "setting": "[1]; human, in vivo", "result": "1 (3.7%)"}, {"measurement": "subjects experiencing upper abdominal pain", "setting": "[1]; human, in vivo", "result": "One (3.7%)"}, {"measurement": "Metformin plasma AUC0-t, Geom LS Mean", "setting": "[3]", "result": 10683.45, "unit": "ng·h/mL"}, {"measurement": "AUC(0-inf)", "setting": "clinical; Geom LS Mean", "result": 11100, "unit": "ng·h/mL"}, {"measurement": "AUC(0-inf)", "setting": "clinical; Mean (SD)", "result": 11200, "unit": "ng·h/mL"}, {"measurement": "AUC(0-t)", "setting": "clinical; Geom LS Mean", "result": 11000, "unit": "ng·h/mL"}, {"measurement": "AUC(0-t)", "setting": "clinical; Mean (SD)", "result": 11200, "unit": "ng·h/mL"}, {"measurement": "metformin dose excreted in the urine", "setting": "[2]; 1000 mg metformin, presence and absence of Compound 1", "result": "approximately 30%"}, {"measurement": "Metformin urine Fe0-3, Mean (CV %)", "setting": "[2]; [5]", "result": "11.76 (33.0) %"}, {"measurement": "Metformin urine Fe0-6, Mean (CV %)", "setting": "[2]; [5]", "result": "21.50 (27.2) %"}, {"measurement": "Metformin urine Fe0-9, Mean (CV %)", "setting": "[2]; [5]", "result": "25.40 (28.1) %"}, {"measurement": "Metformin urine Fe0-12, Mean (CV %)", "setting": "[2]; [5]", "result": "27.42 (26.2) %"}, {"measurement": "Metformin urine Fe0-18, Mean (CV %)", "setting": "[2]; [5]", "result": "29.11 (25.6) %"}, {"measurement": "Metformin urine Fe0-24, Mean (CV %)", "setting": "[2]; [5]", "result": "29.82 (25.1) %"}, {"measurement": "Metformin urine Fe0-30, Mean (CV %)", "setting": "[2]; [5]", "result": "30.21 (24.9) %"}, {"measurement": "Metformin urine Fe0-36, Mean (CV %)", "setting": "[2]; [5]", "result": "30.50 (24.7) %"}, {"measurement": "Metformin urine Fe0-48, Mean (CV %)", "setting": "[2]; [5]", "result": "30.90 (24.5) %"}, {"measurement": "Metformin urine Fe0-72, Mean (CV %)", "setting": "[2]; [5]", "result": "31.23 (24.2) %"}, {"measurement": "Metformin urine Fe0-3, Mean (CV %)", "setting": "[2]; [6]", "result": "10.47 (36.6) %"}, {"measurement": "Metformin urine Fe0-6, Mean (CV %)", "setting": "[2]; [6]", "result": "19.06 (32.4) %"}, {"measurement": "Metformin urine Fe0-9, Mean (CV %)", "setting": "[2]; [6]", "result": "23.11 (33.8) %"}, {"measurement": "Metformin urine Fe0-12, Mean (CV %)", "setting": "[2]; [6]", "result": "25.07 (32.5) %"}, {"measurement": "Metformin urine Fe0-18, Mean (CV %)", "setting": "[2]; [6]", "result": "26.52 (31.3) %"}, {"measurement": "Metformin urine Fe0-24, Mean (CV %)", "setting": "[2]; [6]", "result": "27.21 (30.6) %"}, {"measurement": "Metformin urine Fe0-30, Mean (CV %)", "setting": "[2]; [6]", "result": "27.62 (30.3) %"}, {"measurement": "Metformin urine Fe0-36, Mean (CV %)", "setting": "[2]; [6]", "result": "27.87 (30.0) %"}, {"measurement": "Metformin urine Fe0-48, Mean (CV %)", "setting": "[2]; [6]", "result": "28.25 (29.4) %"}, {"measurement": "Metformin urine Fe0-72, Mean (CV %)", "setting": "[2]; [6]", "result": "28.72 (28.9) %"}]}
